Measurements from PubChem BioAssay AID2060909 (Molecular Pharmacology Branch, DTP, NCI, 2025).
“And” between values parts separate entries of the source, which are not always exact repeats. Equal values may be shown once.

Tested on: 362531-283-R-J2-PDC complex spheroid viability
Experiment: Anticancer human tumor 362531-283-R-J2-PDC patient-derived colon adenocarcinoma cell line growth inhibition [RAS]
Conditions: for viability, T/C: stronger effect = lower value
How it was run: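 Multi-cell-type spheroids: tumor cells plus HUVEC endothelial cells and mesenchymal stem cells. RAS-pathway inhibitors were combined with targeted agents, each dosed in half-log steps down from clinical Cmax, or from 10 microM when Cmax was unknown.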

[1] = curve of first compound, second compound 0.000949 µM
[2] = curve of first compound, second compound 0.003 µM
[3] = curve of first compound, second compound 0.00949 µM
[4] = curve of first compound, second compound 0.03 µM
[5] = curve of first compound, second compound 0.0949 µM
[6] = curve of first compound, second compound 0.3 µM
[7] = second compound 0.000949 µM, first compound 0.0316 µM
[8] = second compound 0.000949 µM, first compound 0.1 µM
[9] = second compound 0.000949 µM, first compound 0.316 µM
[10] = second compound 0.000949 µM, first compound 1 µM
[11] = second compound 0.000949 µM, first compound 3.16 µM
[12] = second compound 0.000949 µM, first compound 10 µM
[13] = second compound 0.003 µM, first compound 0.0316 µM
[14] = second compound 0.003 µM, first compound 0.1 µM
[15] = second compound 0.003 µM, first compound 0.316 µM
[16] = second compound 0.003 µM, first compound 1 µM
[17] = second compound 0.003 µM, first compound 3.16 µM
[18] = second compound 0.003 µM, first compound 10 µM
[19] = second compound 0.00949 µM, first compound 0.0316 µM
[20] = second compound 0.00949 µM, first compound 0.1 µM
[21] = second compound 0.00949 µM, first compound 0.316 µM
[22] = second compound 0.00949 µM, first compound 1 µM
[23] = second compound 0.00949 µM, first compound 3.16 µM
[24] = second compound 0.00949 µM, first compound 10 µM
[25] = second compound 0.03 µM, first compound 0.0316 µM
[26] = second compound 0.03 µM, first compound 0.1 µM
[27] = second compound 0.03 µM, first compound 0.316 µM
[28] = second compound 0.03 µM, first compound 1 µM
[29] = second compound 0.03 µM, first compound 3.16 µM
[30] = second compound 0.03 µM, first compound 10 µM
[31] = second compound 0.0949 µM, first compound 0.0316 µM
[32] = second compound 0.0949 µM, first compound 0.1 µM
[33] = second compound 0.0949 µM, first compound 0.316 µM
[34] = second compound 0.0949 µM, first compound 1 µM
[35] = second compound 0.0949 µM, first compound 3.16 µM
[36] = second compound 0.0949 µM, first compound 10 µM
[37] = second compound 0.3 µM, first compound 0.0316 µM
[38] = second compound 0.3 µM, first compound 0.1 µM
[39] = second compound 0.3 µM, first compound 0.316 µM
[40] = second compound 0.3 µM, first compound 1 µM
[41] = second compound 0.3 µM, first compound 3.16 µM
[42] = second compound 0.3 µM, first compound 10 µM
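Further: spheroids exposed to the agents for 7 days before readout.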
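Wherever viability, T/C is given: luminescence viability as percent of DMSO vehicle control wells.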

For `C[C@@H](NC(=O)c1ncnc(N)c1Cl)c1ncc(C(=O)Nc2cc(C(F)(F)F)c(Cl)cn2)s1` + CCn1c(-c2cccnc2C(C)OC)c2c3cc(ccc31)N1CCOC(CC(NC(=O)C(C(C)C)N(C)C(=O)C3(F)CCN(C(=O)C#CC(C)(C)N(C)C)CC3)C(=O)N3CCCC(N3)C(=O)OCC(C)(C)C2)C1, the IC50 [1] was > 10 µM, the IC50 [2] was > 10 µM and the IC50 [3] was > 10 µM. For the same compound, the IC50 [4] was > 10 µM, the IC50 [5] was > 10 µM and the IC50 [6] was > 10 µM. For the same compound, the viability, T/C [7] was 111%, the viability, T/C [8] was 107% and the viability, T/C [9] was 91.5%. For the same compound, the viability, T/C [10] was 106%, the viability, T/C [11] was 73.3% and the viability, T/C [12] was 61.4%. It also gave a viability, T/C [13] of 112%, a viability, T/C [14] of 94% and a viability, T/C [15] of 109%. For the same compound, the viability, T/C [16] was 92.5%, the viability, T/C [17] was 79.2% and the viability, T/C [18] was 66%. It also gave a viability, T/C [19] of 105%, a viability, T/C [20] of 108% and a viability, T/C [21] of 87.1%. For the same compound, the viability, T/C [22] was 88.5%, the viability, T/C [23] was 82.1% and the viability, T/C [24] was 73.6%. For the same compound, the viability, T/C [25] was 107%, the viability, T/C [26] was 99.3% and the viability, T/C [27] was 105%. For the same compound, the viability, T/C [28] was 91.7%, the viability, T/C [29] was 89.7% and the viability, T/C [30] was 64.9%. For the same compound, the viability, T/C [31] was 97.9%, the viability, T/C [32] was 96.1% and the viability, T/C [33] was 89.5%. It also gave a viability, T/C [34] of 91.4%, a viability, T/C [35] of 87.7% and a viability, T/C [36] of 73.9%. The viability, T/C [37] was 103%, the viability, T/C [38] was 101% and the viability, T/C [39] was 85.4%. It also gave a viability, T/C [40] of 87.1%, a viability, T/C [41] of 91.9% and a viability, T/C [42] of 80.1%.

`CCC(CC)c1cc(NC2CCC(N)C2)n2nccc2n1` (stereo unspecified) + CCn1c(-c2cccnc2C(C)OC)c2c3cc(ccc31)N1CCOC(CC(NC(=O)C(C(C)C)N(C)C(=O)C3(F)CCN(C(=O)C#CC(C)(C)N(C)C)CC3)C(=O)N3CCCC(N3)C(=O)OCC(C)(C)C2)C1 was tested, and the IC50 [1] was 4.52 µM, the IC50 [2] was 4.5 µM and the IC50 [3] was 4.34 µM. For the same compound, the IC50 [4] was 4.72 µM, the IC50 [5] was 4.68 µM and the IC50 [6] was 4.95 µM. It also gave a viability, T/C [7] of 99.5%, a viability, T/C [8] of 111% and a viability, T/C [9] of 98.1%. The viability, T/C [10] was 98.4%, the viability, T/C [11] was 70.5% and the viability, T/C [12] was 3.98%. The viability, T/C [13] was 105%, the viability, T/C [14] was 101% and the viability, T/C [15] was 99.9%. For the same compound, the viability, T/C [16] was 101%, the viability, T/C [17] was 70.8% and the viability, T/C [18] was 3.44%. It also gave a viability, T/C [19] of 103%, a viability, T/C [20] of 116% and a viability, T/C [21] of 97.9%. It also gave a viability, T/C [22] of 96.5%, a viability, T/C [23] of 67.2% and a viability, T/C [24] of 3.91%. For the same compound, the viability, T/C [25] was 102%, the viability, T/C [26] was 104% and the viability, T/C [27] was 95.8%. For the same compound, the viability, T/C [28] was 89%, the viability, T/C [29] was 76.8% and the viability, T/C [30] was 4.25%. The viability, T/C [31] was 94.3%, the viability, T/C [32] was 102% and the viability, T/C [33] was 93.7%. For the same compound, the viability, T/C [34] was 94.8%, the viability, T/C [35] was 73.7% and the viability, T/C [36] was 4.42%. The viability, T/C [37] was 99.2%, the viability, T/C [38] was 105% and the viability, T/C [39] was 100%. It also gave a viability, T/C [40] of 91.8%, a viability, T/C [41] of 80.8% and a viability, T/C [42] of 4.23%.

For `NC1c2ccccc2OC12CCN(c1cnc3c(N4CCCc5ncccc54)n[nH]c3n1)CC2` (stereo unspecified), the viability, T/C (compound 0.0316 µM) was 95.1% [middle of 4 runs], the viability, T/C (compound 0.1 µM) was 90% [middle of 4 runs] and the viability, T/C (compound 0.316 µM) was 85.3% [middle of 4 runs]. For the same compound, the viability, T/C (compound 1 µM) was 76.1% [middle of 4 runs], the viability, T/C (compound 3.16 µM) was 68.5% [middle of 4 runs] and the viability, T/C (compound 10 µM) was 49.4% [middle of 4 runs]. The IC50 (curve of compound) was > 10 µM and 6.07 µM and 8.41 µM.
